# Assays:
# [1] = test system: neonatal mouse oligodendrocyte progenitor cells; test: MTT metabolic activity / toxicity assay on neonatal mouse OPCs; type: cell-based; conditions: 1 and 10 microM, viability vs DMSO
# Protocol: Purified oligodendrocyte progenitor cells (OPC) obtained from neonatal mouse primary mixed glial cultures^25 were plated at the density of 6*10^4 cells/cm^2 into poly-L-lysine-coated 96 well plates. One day after plating, the cells were incubated with or without drugs (10, 1 and 0.1 μM) in DMSO (0.001% vehicle) for 48 hours. Compounds were screened for their ability to reduce [3-(4,5-dimethylthiazol-2-yl)-2,5-diphenyltetrazolium bromide (MTT)] using an automated microplate reader (Bio-rad, Hercules, CA, USA), as previously described.^25 MTT (0.25 mg/ml, Sigma-Aldrich, St Louis, MO) was added to the culture medium during the final 4 hours of incubation.
# Toxicity of the full list of drugs (274) at 10 μM have been evaluated on neonatal mouse oligodendrocyte progenitor cells via metabolic activity by MTT. First, drugs able to reduce OPC viability were selected, identifying 90 compounds with a cytotoxic effect defined by the Efficacy Ratio ER (absorbance of drug/absorbance of vehicle; PMID: 28387380) (ER≤0.4) which have not been further investigated—and 44 drugs inhibiting OPC metabolism at lower level (0.5<ER<0.8)—which were analyzed in the next experimental setting. As a result, 90 compounds were cytotoxic, 44 compounds with low toxicity were retested at 1 and 0.1 μM, 140 compounds (ER>0.8) were non-toxic and were re-tested.
# [2] = test system: double fluorescence CG4 cell line (rat OPC line); test: Toxicity assay (cell density) on double fluorescence CG4 line; type: cell-based; conditions: 1 and 10 microM, viability vs basal condition
# From the text: Primary validation on CG4 line toxicity and differentiation. An innovative OPC line was developed for fast and reliable high content screening (HCS) of small compounds inducing oligodendrocyte differentiation. The line was genetically engineered by lentiviral transduction of rat CG4 cells (PubMed=1613821; DOI=10.1002/jnr.490310125; Louis J. C., Magal E., Muir D., Manthorpe M., Varon S.; CG-4, a new bipotential glial cell line from rat brain, is capable of differentiating in vitro into either mature oligodendrocytes or type-2 astrocytes. J. Neurosci. Res. 31:193-204(1992) to express mCherry fluorescent reporter (Evercooren, Anne & Avellana-Adalid, V. & Vitry, Sandrine & Nait-Oumesmar, Brahim & Lachapelle, Francois. (1997). Expansion of Oligodendrocyte Progenitors for Myelin Repair. 10.1007/978-1-4615-5949-8_21) in mature oligodendrocytes only, and EGFP at all stage of the oligodendroglial lineage: both the generation of mature oligodendrocytes (wmNl-mCherry) and the morphological changes associated with differentiation (CMV-EGFP) can be therefore monitored in a single assay. mCherry expression occurred only in O4+/GalC+ differentiated oligodendrocytes and GFP was ubiquitously expressed at all developmental stages. […]
# Compounds (272) were tested at 1 μM, using a double fluorescence CG4 cell line (rat OPC line), 9 cis-retinoic acid (1 μM) served as a positive control.
smiles,measurement,setting,value
O=C(N[C@@H]1CC[C@@H](c2cccc(F)c2F)CN(CC(F)(F)F)C1=O)N1CCC(n2c(=O)[nH]c3ncccc32)CC1 [Telcagepant],cytotoxicity on neonatal mouse OPCs,[1],not toxic on oligodendrocytes
same,cytotoxicity on CG4 line,[2],not toxic on oligodendrocytes

# Source: US20240148745A1, “COMPOUNDS FOR USE IN PROGRESSIVE MULTIPLE SCLEROSIS” (FONDAZIONE CENTRO SAN RAFFAELE, priority 2021, published 2024)
